19 molecules from US11040035B2, “3-oxo-2,6-diphenyl-2,3-dihydropyridazine-4-carboxamides” (BAYER PHARMA AKTIENGESELLSCHAFT, priority 2016, dated 2021) can be followed below.

The structures appear in SMILES notation. Where two headings read alike, the source gives them in different places. Where only a bound is given, the exact number is not on record here.

The target in data set [1] is T1, AHR (Homo sapiens, UniProt P35869).
T1 sequence (P35869 11-848): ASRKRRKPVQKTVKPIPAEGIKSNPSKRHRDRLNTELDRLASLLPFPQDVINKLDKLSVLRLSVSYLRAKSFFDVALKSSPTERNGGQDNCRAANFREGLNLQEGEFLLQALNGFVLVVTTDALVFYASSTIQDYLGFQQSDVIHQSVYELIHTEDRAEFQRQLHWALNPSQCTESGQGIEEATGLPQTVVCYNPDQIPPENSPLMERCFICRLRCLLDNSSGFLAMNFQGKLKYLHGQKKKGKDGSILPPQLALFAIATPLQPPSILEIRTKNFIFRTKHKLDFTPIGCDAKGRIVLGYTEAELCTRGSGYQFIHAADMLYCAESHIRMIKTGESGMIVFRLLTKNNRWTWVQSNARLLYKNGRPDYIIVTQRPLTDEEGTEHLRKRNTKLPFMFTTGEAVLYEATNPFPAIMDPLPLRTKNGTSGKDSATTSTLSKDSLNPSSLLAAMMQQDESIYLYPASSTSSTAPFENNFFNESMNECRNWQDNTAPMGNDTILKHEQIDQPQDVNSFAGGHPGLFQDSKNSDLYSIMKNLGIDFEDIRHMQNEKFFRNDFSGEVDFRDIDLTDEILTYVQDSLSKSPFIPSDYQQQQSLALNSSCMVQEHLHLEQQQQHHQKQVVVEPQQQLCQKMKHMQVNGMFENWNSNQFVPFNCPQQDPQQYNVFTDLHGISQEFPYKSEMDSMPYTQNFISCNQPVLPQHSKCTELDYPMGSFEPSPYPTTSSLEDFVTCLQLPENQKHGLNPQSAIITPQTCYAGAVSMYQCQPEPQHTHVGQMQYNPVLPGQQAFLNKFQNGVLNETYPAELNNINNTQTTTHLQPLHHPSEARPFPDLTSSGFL
The experiment in a line: In vitro assay 1: antagonism in human cell line (transactivation assay, kynurenic acid prestimulated). The following applies: Assay 1: AHR-luc Hum Antagonism IC50 [M], 150 μM kynurenic acid, 20 hours, firefly luciferase.

Data set [2] addresses T1, AHR. The data set can be described thus: In vitro assay 2: agonism in human cell line (transactivation assay).
In data set [3] the test system is AHR-regulated gene CYP1A1. The experiment in a line: In vitro assay 3: AHR-regulated CYP1A1 expression in human cell line (U937, qPCR). A general note: Real-time PCR tracks product formation cycle by cycle.
Setting [4] is: Assay 2: AHR-luc Hum Agonism IC50 [M], no kynurenic acid, 20 hours, firefly luciferase.
Setting [5] is: Homo sapiens, U-937, 6 h, read-out: Assay 3: Hum CYP1A1 Antagonism IC50 [M], U937 cells, 200 μM KA, 6 hours, qPCR.
Setting [6] is: read-out: Assay 3: Hum CYP1A1 Antagonism IC50, U937 cells, 200 μM KA, 6 hours, qPCR.
[7] abbreviates: read-out: Assay 2: AHR-luc Hum Agonism IC50, no kynurenic acid, 20 hours, firefly luciferase.

On to `CC(C)(O)CNC(=O)c1cc(-c2ccc(C(F)(F)F)cc2)nn(-c2cccc(F)c2)c1=O` [Example 256, 2-(3-Fluorophenyl)-N-(2-hydroxy-2-methylpropyl)-3-oxo-6-[4-(trifluoromethyl)phenyl]-2,3-dihydropyridazine-4-carboxamide], for which the values for the IC50 in data set [1], in data set [2] (setting [4]) and in data set [3] (setting [5]) were 1.44e-08 M, above 2e-05 M and 2.83e-08 M, respectively.

In the case of `C[C@@H](O)[C@@H](C)NC(=O)c1cc(-c2ccc(Cl)cc2)nn(-c2cccc(F)c2)c1=O` [Example 231, 6-(4-Chlorophenyl)-2-(3-fluorophenyl)-N-[(2R,3R)-3-hydroxybutan-2-yl]-3-oxo-2,3-dihydropyridazine-4-carboxamide], the IC50 is 4.72e-08 M in data set [1], above 2e-05 M in data set [2] (setting [4]) and 5.77e-08 M in data set [3] (setting [5]).

Consider `CC(O)C(NC(=O)c1cc(-c2ccc(Cl)cc2)nn(-c2cccc(F)c2)c1=O)C(F)(F)F` (single isomer, unassigned) [Example 198, 6-(4-chlorophenyl)-2-(3-fluorophenyl)-3-oxo-N-(1,1,1-trifluoro-3-hydroxybutan-2-yl)-2,3-dihydropyridazine-4-carboxamide], for which the IC50 in data set [1] is 1.34e-08 M; in data set [2] (setting [4]) it was above 2e-05 M; in data set [3] (setting [5]), 1.49e-08 M.

For `O=C(NC(CO)C1CCCO1)c1cc(-c2ccc(C(F)(F)F)cc2)nn(-c2cccc(F)c2)c1=O` (racemic) [Example 263, 3,6-Anhydro-2,4,5-trideoxy-2-[({2-(3-fluorophenyl)-3-oxo-6-[4-(trifluoromethyl)phenyl]-2,3-dihydropyridazin-4-yl}carbonyl)amino]-DL-erythro-hexitol and 1,4-anhydro-2,3,5-trideoxy-5-[({2-(3-fluorophenyl)-3-oxo-6-[4-(trifluoromethyl)phenyl]-2,3-dihydropyridazin-4-yl}carbonyl)amino]-DL-threo-hexitol], the results for the IC50 in data set [1], in data set [2] (setting [4]) and in data set [3] (setting [5]) were 3.54e-08 M, above 2e-05 M and 6.06e-08 M, respectively.

As to `O=C(NC(CO)C(F)(F)F)c1cc(-c2ccc(OC(F)(F)F)cc2)nn(-c2cccc(F)c2)c1=O` (single isomer, unassigned) [Example 170, 2-(3-Fluorophenyl)-3-oxo-N-(1,1,1-trifluoro-3-hydroxypropan-2-yl)-6-[4-(trifluoromethoxy)phenyl]-2,3-dihydropyridazine-4-carboxamide], the IC50 is 1.19e-08 M in data set [1], above 2e-05 M in data set [2] (setting [4]) and 1.42e-08 M in data set [3] (setting [5]).

As to `CC(NC(=O)c1cc(-c2ccc(C(F)(F)F)cc2)nn(-c2cccc(F)c2)c1=O)C(O)C(F)(F)F` (single isomer, unassigned) [Example 271, Isomer no. 4 of 2-(3-fluorophenyl)-3-oxo-N-(4,4,4-trifluoro-3-hydroxybutan-2-yl)-6-[4-(trifluoromethyl)phenyl]-2,3-dihydropyridazine-4-carboxamide], the figures for the IC50 in data set [1], in data set [2] (setting [4]) and in data set [3] (setting [6]) were 2.06e-08 M, above 2e-05 M and 3.01e-08 M, respectively.

On to `CC(C)[C@@H](CO)NC(=O)c1cc(-c2ccc(Cl)cc2)nn(-c2cc(F)cc(F)c2)c1=O` [Example 43, 6-(4-Chlorophenyl)-2-(3,5-difluorophenyl)-N-[(2S)-1-hydroxy-3-methylbutan-2-yl]-3-oxo-2,3-dihydropyridazine-4-carboxamide], for which the IC50 in data set [1] is 4.89e-09 M; in data set [2] (setting [4]) it was above 2e-05 M; in data set [3] (setting [5]), 1.08e-08 M.

In the case of `O=C(NC(CO)C1CCOC1)c1cc(-c2ccc(OC(F)(F)F)cc2)nn(-c2cccc(F)c2)c1=O` (single isomer, unassigned) [Example 175, 2-(3-Fluorophenyl)-N-[2-hydroxy-1-(tetrahydrofuran-3-yl)ethyl]-3-oxo-6-[4-(trifluoromethoxy)phenyl]-2,3-dihydropyridazine-4-carboxamide], the IC50 is 2.91e-08 M in data set [1], above 2e-05 M in data set [2] (setting [4]) and 3.76e-08 M in data set [3] (setting [6]).

For the molecule `O=C(N[C@@H]1CCCC(F)(F)[C@H]1O)c1cc(-c2ccc(Cl)cc2)nn(-c2cccc(F)c2)c1=O` (single isomer, unassigned) [Example 275, 6-(4-Chlorophenyl)-N-[(trans)-3,3-difluoro-2-hydroxycyclohexyl]-2-(3-fluorophenyl)-3-oxo-2,3-dihydropyridazine-4-carboxamide], the IC50 in data set [1] was 1.81e-08 M; in data set [2] (setting [4]), above 2e-05 M; in data set [3] (setting [5]) it was 3.39e-08 M.

Regarding `CC[C@@H](CO)NC(=O)c1cc(-c2ccc(Cl)c(Cl)c2)nn(-c2cccc(F)c2)c1=O` [Example 306, 6-(3,4-Dichlorophenyl)-2-(3-fluorophenyl)-N-[(2S)-1-hydroxybutan-2-yl]-3-oxo-2,3-dihydropyridazine-4-carboxamide], the IC50 is 1.06e-07 M in data set [1], above 2e-05 M in data set [2] (setting [4]) and 1.75e-07 M in data set [3] (setting [5]).

With `O=C(NCC(O)C(F)F)c1cc(-c2ccc(C(F)(F)F)cc2)nn(-c2cccc(F)c2)c1=O` (single isomer, unassigned; (+)) [Example 328, (+)-N-(3,3-difluoro-2-hydroxypropyl)-2-(3-fluorophenyl)-3-oxo-6-[4-(trifluoromethyl)phenyl]-2,3-dihydropyridazine-4-carboxamide], the IC50 in data set [1] was 4.47e-08 M; in data set [2] (setting [7]), above 2e-05 M; in data set [3] (setting [6]), 9.53e-08 M.

`CC(C)C(O)CNC(=O)c1cc(-c2ccc(Cl)cc2)nn(-c2cccc(F)c2)c1=O` (single isomer, unassigned) [Example 29, 6-(4-Chlorophenyl)-2-(3-fluorophenyl)-N-(2-hydroxy-3-methylbutyl]-3-oxo-2,3-dihydropyridazine-4-carboxamide]: the results for the half-maximal inhibitory concentration (IC50) in data set [1], in data set [2] (setting [4]) and in data set [3] (setting [5]) were 9.15e-08 M, above 2e-05 M and 1.55e-07 M, respectively.

`Cc1ccc(-c2cc(C(=O)N[C@@H](C)CO)c(=O)n(-c3cc(F)cc(F)c3)n2)cc1` [Example 55, 2-(3,5-Difluorophenyl)-N-[(2S)-1-hydroxypropan-2-yl]-6-(4-methylphenyl)-3-oxo-2,3-dihydropyridazine-4-carboxamide]: the IC50 in data set [1] is 1.8e-08 M; in data set [2] (setting [4]), above 2e-05 M; in data set [3] (setting [5]), 1.54e-08 M.

As to `CN(C)c1ccc(-c2cc(C(=O)NC(CO)C(F)(F)F)c(=O)n(-c3cccc(F)c3)n2)cc1Cl` (stereo not drawn) [Example 376, 6-[3-chloro-4-(dimethylamino)phenyl]-2-(3-fluorophenyl)-3-oxo-N-(1,1,1-trifluoro-3-hydroxypropan-2-yl)-2,3-dihydropyridazine-4-carboxamide], the IC50 is 3.97e-08 M in data set [1], above 2e-05 M in data set [2] (setting [4]) and 1.12e-07 M in data set [3] (setting [5]).

In the case of `CC(C)C(O)CNC(=O)c1cc(-c2ccc(Cl)cc2)nn(-c2cc(F)cc(F)c2)c1=O` (single isomer, unassigned) [Example 50, 6-(4-Chlorophenyl)-2-(3,5-difluorophenyl)-N-(2-hydroxy-3-methylbutyl)-3-oxo-2,3-dihydropyridazine-4-carboxamide], the IC50 in data set [1] was 5.8e-08 M; in data set [2] (setting [7]) it was above 2e-05 M; in data set [3] (setting [6]), 1.51e-07 M.

As to `O=C(N[C@@H]1CC[C@@H]1O)c1cc(-c2ccc(Cl)cc2)nn(-c2cccc(F)c2)c1=O` (relative stereo) [Example 357], the values for the IC50 in data set [1], in data set [2] (setting [4]) and in data set [3] (setting [5]) were 2.13e-08 M, above 2e-05 M and 2.7e-08 M, respectively.

For the molecule `Cc1ccc(-c2cc(C(=O)N[C@H](CO)C(C)C)c(=O)n(-c3cc(F)cc(F)c3)n2)cc1` [Example 51, 2-(3,5-Difluorophenyl)-N-[(2S)-1-hydroxy-3-methylbutan-2-yl]-6-(4-methylphenyl)-3-oxo-2,3-dihydropyridazine-4-carboxamide], the IC50 in data set [1] was 4.16e-09 M; in data set [2] (setting [4]), above 2e-05 M; in data set [3] (setting [5]) it was 1.15e-09 M.

Take `C[C@@H](CO)NC(=O)c1cc(-c2ccc(OC(F)(F)F)cc2)nn(-c2cccc(F)c2)c1=O` [Example 173, 2-(3-Fluorophenyl)-N-[(2S)-1-hydroxypropan-2-yl]-3-oxo-6-[4-(trifluoromethoxy)phenyl]-2,3-dihydropyridazine-4-carboxamide]: the IC50 in data set [1] is 3.31e-08 M; in data set [2] (setting [4]), above 2e-05 M; in data set [3] (setting [5]), 9.1e-08 M.

`C[C@H](O)[C@H](C)NC(=O)c1cc(-c2ccc(Cl)cc2)nn(-c2cccc(F)c2)c1=O` [Example 114, 6-(4-Chlorophenyl)-2-(3-fluorophenyl)-N-[(2S,3S)-3-hydroxybutan-2-yl]-3-oxo-2,3-dihydropyridazine-4-carboxamide]: the values for the IC50 in data set [1], in data set [2] (setting [4]) and in data set [3] (setting [5]) were 2.3e-08 M, above 2e-05 M and 5.27e-08 M, respectively.

The term IC50 denotes the midpoint of a concentration-inhibition curve.
